Measurements as given in patent US20020115724A1, “Methods and agents for inhibiting protein aging” (priority 1985, published 2002).
Where a name gives a salt, the structure may show the parent alone.

Key:
[1] = system: Streptozotocin-diabetic male Lewis rats; assay: Tail tendon collagen solubility (pepsin), streptozotocin-diabetic rats; format: in vivo, rat; conditions: 9 months; for Collagen Solubility: tail tendon
Method: Streptozotocin-diabetic male Lewis rats were treated for a 9-month time period with daily doses of aminoguanidine hydrochloride of 0, 6.25, 12.5, 25, and 50 mg/kg/day. After the treatment period, collagen in tail tendon fiber was subjected to solubility determination. Ten mg samples were incubated with gentle rocking for 5 hours at 4° C. in 5 ml of 0.5M acetic acid containing 1 mg pepsin. The samples were then centrifuged at 50,000× g for 1 hour, and the soluble and insoluble fraction separated by decanting. Each fraction was hydrolyzed in 6N HCl and total hydroxyproline measured.

[2] = system: diabetic New Zealand white rabbits; assay: Red blood cell deformability in long-term diabetic rabbits; format: in vivo, rabbit; conditions: for Red Blood Cell Deformability Index: diabetic rabbits, 100 mg/kg/day oral gavage
From the text: New Zealand white rabbits, with induced, long-term diabetes (12.7±3.2 months) are used to study the effects of a test compound on red blood cell (RBC) deformability. If glucose-mediated crosslinking of red blood cell components results in less deformable, more rigid membrane, then therapy should prevent this change in new red cells. Red blood cells already in existence at the initiation of therapy would be unaffected; because RBCs are replaced frequently newly formed red blood cells would be exposed to the therapy. […] The test compound is administered at a rate of 100 mg/kg/day by oral gavage.
The deformability index (DI) (filtration rate of buffer/filtrate rate of suspended RBCs; hematocrit=4.0%) is used as a measure of RBC deformability. Buffer and suspended RBCs are filtered through a 3 μ micropore membrane (Nucleopore Corp., Pleasanton, Calif.) with a pressure of […] at 37° C. A reference range for RBC deformability (2.67 to 4.84, mean 4.02±0.69) and % hemoglobin glycosylation (1.7 to 3.96, mean 2.60±0.70) is obtained from a group of normal New Zealand white rabbits (n=14), matched for age, sex and weight.
The results are given in Table III, below for diabetic New Zealand white rabbits dosed with 100 mg/kg/day aminoguanidine.

kidney = conditions: in vivo; cited from earlier work

N=C(N)NN [aminoguanidine hydrochloride]
prevention of the diabetes-induced fall in tail tendon collagen solubility ([1]; 6.25 up to 50 mg/kg/day orally): significantly prevented this change in a dose-dependent manner | prevention of the diabetes induced cross-linking ([1]; highest dose (50 mg/kg/day orally)): 80% | Collagen Solubility ([1]; Diabetic, 12.5 mg/kg/day): 66.7 ± 1.2% | Collagen Solubility ([1]; Diabetic, 50 mg/kg/day): 75.9 ± 0.4% | Collagen Solubility ([1]; Normal, 50 mg/kg/day): 88.2 ± 0.2% | Red Blood Cell Deformability Index ([2]; 0 weeks of dosing (baseline)): 18.32 ± 6.03 | Red Blood Cell Deformability Index ([2]; 4 weeks of dosing): 7.17 ± 3.12 | Red Blood Cell Deformability Index ([2]; 8 weeks of dosing): 6.83 ± 2.97 | Red Blood Cell Deformability Index ([2]; 12 weeks of dosing): 4.64 ± 1.58 | Red Blood Cell Deformability Index ([2]; 16 weeks of dosing): 4.44 ± 1.33 | Red Blood Cell Deformability Index ([2]; 20 weeks of dosing): 4.14 ± 1.06 | effect on diabetes-induced increased deformability index ([2]; long-term diabetic rabbits, delayed treatment): to normal after 12 weeks | RBC deformability index ([2]; separate experiment, daily administration from the time of induction of diabetes): never became abnormal | immunoglobulin trapping in the kidney (kidney): reduction of immunoglobulin trapping in the kidney
